Results reported in ChEMBL document CHEMBL1201862, “PubChem BioAssay data set” (2004).
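Dose response: 5 concentrations. Exposure: 48 h. Format: 96-well plates. Endpoint: linear interpolation; highest concentration if not reached. GI50 is the concentration that inhibits growth by half.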 Activity calls are given as the source filed them. Rule as the data show it: active = GI50 up to about 1.1 µM and inactive = higher.

What was measured:
Experiment in all cases: inhibition of tumour cell growth, NCI panel, 48 h
NCI-H23 = test system: NCI-H23
Malme-3M = test system: Malme-3M
HCC 2998 = test system: HCC 2998
NCI/ADR-RES = test system: NCI/ADR-RES
CCRF-CEM = test system: CCRF-CEM
OVCAR-5 = test system: OVCAR-5
SW-620 = test system: SW-620
NCI-H522 = test system: NCI-H522
HT-29 = test system: HT-29
SF-539 = test system: SF-539
NCI-H226 = test system: NCI-H226
SK-MEL-28 = test system: SK-MEL-28
UO-31 = test system: UO-31
OVCAR-3 = test system: OVCAR-3
HL-60 = test system: HL-60
ACHN = test system: ACHN
IGROV-1 = test system: IGROV-1
HOP-62 = test system: HOP-62
UACC-257 = test system: UACC-257
SNB-78 = test system: SNB-78

Row | SMILES | GI50 (NCI-H23) | GI50 (Malme-3M) | GI50 (HCC 2998) | GI50 (NCI/ADR-RES) | GI50 (CCRF-CEM) | GI50 (OVCAR-5) | GI50 (SW-620) | GI50 (NCI-H522) | GI50 (HT-29) | GI50 (SF-539) | GI50 (NCI-H226) | GI50 (SK-MEL-28) | GI50 (UO-31) | GI50 (OVCAR-3) | GI50 (HL-60) | GI50 (ACHN) | GI50 (IGROV-1) | GI50 (HOP-62) | GI50 (UACC-257) | GI50 (SNB-78)
1 | COc1ccc(N2C(=O)C3c4[nH]c5cc(C)ccc5c4C4CCC(C(C)(C)C)CC4C3C2=O)cc1 (stereo not drawn) | > 10 µM (inactive) | > 10 µM (inactive) | > 10 µM (inactive) | 3.66 µM (inactive) | > 10 µM (inactive) | > 10 µM (inactive) | > 10 µM (inactive) | 8.63 µM (inactive) | > 10 µM (inactive) | 4.19 µM (inactive) | > 10 µM (inactive) | > 10 µM (inactive) | > 10 µM (inactive) | > 10 µM (inactive) | > 10 µM (inactive) | > 10 µM (inactive) | > 10 µM (inactive) | 7.6 µM (inactive) | – | –
2 | O=C(O)CN1CCCC(Cc2c[nH]c3ccccc23)C1 (stereo not drawn) | > 100 µM (inactive) | > 100 µM (inactive) | > 100 µM (inactive) | > 100 µM (inactive) | – | > 100 µM (inactive) | > 100 µM (inactive) | – | – | > 100 µM (inactive) | > 100 µM (inactive) | > 100 µM (inactive) | > 100 µM (inactive) | > 100 µM (inactive) | – | > 100 µM (inactive) | > 100 µM (inactive) | > 100 µM (inactive) | > 100 µM (inactive) | –
3 | O=C1C[C@H](c2ccccc2)C2(C(=O)c3ccccc3C2=O)[C@@H](c2ccccc2)C1 | 32.5 µM (inactive) | 36.7 µM (inactive) | 23.3 µM (inactive) | 23.2 µM (inactive) | 9.55 µM (inactive) | 42.2 µM (inactive) | – | 30.2 µM (inactive) | 26.4 µM (inactive) | – | 24.9 µM (inactive) | 19 µM (inactive) | 33.3 µM (inactive) | 26.9 µM (inactive) | 73.1 µM (inactive) | – | 16.3 µM (inactive) | 38.5 µM (inactive) | – | –
4 | CC1OC(OC2C(OC(=O)[C@@H]3CC(C)(C)C[C@H]4C5=CC[C@@H]6[C@@]7(C)C[C@H](O)[C@H](OC8OC(CO)C(O)C(O)C8O)[C@@](C)(CO)[C@@H]7[C@H](O)C[C@@]6(C)[C@]5(C)CC[C@@]34C)OCC(O)C2O)C(O)C(O)C1O (stereo partly drawn) | > 7.5 µM (inactive) | > 7.5 µM (inactive) | > 7.5 µM (inactive) | > 7.5 µM (inactive) | > 7.5 µM (inactive) | > 7.5 µM (inactive) | > 7.5 µM (inactive) | > 7.5 µM (inactive) | > 7.5 µM (inactive) | > 7.5 µM (inactive) | > 7.5 µM (inactive) | – | > 7.5 µM (inactive) | > 7.5 µM (inactive) | > 7.5 µM (inactive) | > 7.5 µM (inactive) | > 7.5 µM (inactive) | > 7.5 µM (inactive) | > 7.5 µM (inactive) | –
5 | C=CC(OCC)(OCC)OCC | > 100 µM (inactive) | > 100 µM (inactive) | > 100 µM (inactive) | – | > 100 µM (inactive) | > 100 µM (inactive) | – | > 100 µM (inactive) | > 100 µM (inactive) | > 100 µM (inactive) | > 100 µM (inactive) | > 100 µM (inactive) | > 100 µM (inactive) | > 100 µM (inactive) | > 100 µM (inactive) | > 100 µM (inactive) | > 100 µM (inactive) | > 100 µM (inactive) | > 100 µM (inactive) | > 100 µM (inactive)
6 | CC1=C(C(=O)N[C@@H](CC(C)C)C(=O)O)N2C(=O)[C@@H](NC(=O)C(N)c3ccccc3)[C@H]2SC1 (stereo partly drawn) | – | > 100 µM (inactive) | > 100 µM (inactive) | > 100 µM (inactive) | > 100 µM (inactive) | > 100 µM (inactive) | > 100 µM (inactive) | > 100 µM (inactive) | – | > 100 µM (inactive) | 60.4 µM (inactive) | > 100 µM (inactive) | – | > 100 µM (inactive) | > 100 µM (inactive) | > 100 µM (inactive) | > 100 µM (inactive) | – | > 100 µM (inactive) | –
7 | CC1CC2C3CC(F)C4=CC(=O)C=CC4(C)C3(F)C(O)CC2(C)C1(O)C(=O)COC(=O)C(C)(C)C (stereo not drawn) | > 100 µM (inactive) | > 100 µM (inactive) | > 100 µM (inactive) | – | 0.0203 µM (active) | > 100 µM (inactive) | > 100 µM (inactive) | 71 µM (inactive) | > 100 µM (inactive) | 87.5 µM (inactive) | > 100 µM (inactive) | 37.2 µM (inactive) | > 100 µM (inactive) | > 100 µM (inactive) | > 100 µM (inactive) | 32.7 µM (inactive) | 64.1 µM (inactive) | 75.7 µM (inactive) | 57.9 µM (inactive) | 27.5 µM (inactive)
8 | CC(=O)N/C(=C\c1ccc(/C=C(\NC(C)=O)C2=NC3C(=O)c4ccccc4C(=O)C3N2)cc1)C1=NC2C(=O)c3ccccc3C(=O)C2N1 (stereo not drawn) | 26.7 µM (inactive) | – | – | – | 0.865 µM (active) | 75 µM (inactive) | 1.84 µM (inactive) | 7.69 µM (inactive) | > 100 µM (inactive) | 76.7 µM (inactive) | 15.4 µM (inactive) | > 100 µM (inactive) | 2.97 µM (inactive) | 49.3 µM (inactive) | 3.96 µM (inactive) | 4.1 µM (inactive) | 8.47 µM (inactive) | – | > 100 µM (inactive) | 70.3 µM (inactive)
9 | O=C1c2ccccc2C(=O)c2c1ccc1c2N=C(c2ccc(F)cc2)CC(c2ccc(Cl)c(Cl)c2)N1 (stereo not drawn) | 16.6 µM (inactive) | – | 13.6 µM (inactive) | – | 2.13 µM (inactive) | 14.7 µM (inactive) | 6.11 µM (inactive) | 7.29 µM (inactive) | 13.5 µM (inactive) | 19.3 µM (inactive) | 22.2 µM (inactive) | 19.3 µM (inactive) | 10.8 µM (inactive) | – | 3.94 µM (inactive) | 13.9 µM (inactive) | 10.3 µM (inactive) | 22 µM (inactive) | 23.7 µM (inactive) | 19.2 µM (inactive)
10 | NC(=O)Nc1cc(O)ccc1/N=N/c1ccc(S(=O)(=O)Nc2ccccn2)cc1 | > 100 µM (inactive) | > 100 µM (inactive) | > 100 µM (inactive) | – | > 100 µM (inactive) | > 100 µM (inactive) | > 100 µM (inactive) | > 100 µM (inactive) | > 100 µM (inactive) | > 100 µM (inactive) | – | > 100 µM (inactive) | > 100 µM (inactive) | > 100 µM (inactive) | > 100 µM (inactive) | > 100 µM (inactive) | > 100 µM (inactive) | > 100 µM (inactive) | > 100 µM (inactive) | > 100 µM (inactive)
11 | O=C(/C=C/c1ccc(Cl)c(Cl)c1)C1CCC(Cl)CC1 (stereo not drawn) | 17.9 µM (inactive) | 18.5 µM (inactive) | 17.2 µM (inactive) | – | – | 17.4 µM (inactive) | 16.9 µM (inactive) | 16.7 µM (inactive) | 16.3 µM (inactive) | 18.4 µM (inactive) | 31.2 µM (inactive) | 17.5 µM (inactive) | 18.4 µM (inactive) | 15 µM (inactive) | – | 17.1 µM (inactive) | 17.1 µM (inactive) | 57.3 µM (inactive) | 18.5 µM (inactive) | 21.9 µM (inactive)
12 | Nc1c(Cl)c([N+](=O)[O-])cc2c1OCCCCO2 | > 100 µM (inactive) | > 100 µM (inactive) | > 100 µM (inactive) | 89.5 µM (inactive) | 79.6 µM (inactive) | > 100 µM (inactive) | > 100 µM (inactive) | 2.32 µM (inactive) | > 100 µM (inactive) | > 100 µM (inactive) | 72.3 µM (inactive) | > 100 µM (inactive) | > 100 µM (inactive) | > 100 µM (inactive) | > 100 µM (inactive) | > 100 µM (inactive) | 40.5 µM (inactive) | > 100 µM (inactive) | > 100 µM (inactive) | –
13 | COc1ccc(/C=C2\Oc3cc(OC(C)=O)ccc3C2=O)cc1 | > 100 µM (inactive) | – | > 100 µM (inactive) | > 100 µM (inactive) | 73.6 µM (inactive) | – | > 100 µM (inactive) | 19 µM (inactive) | – | > 100 µM (inactive) | > 100 µM (inactive) | > 100 µM (inactive) | > 100 µM (inactive) | > 100 µM (inactive) | 94 µM (inactive) | > 100 µM (inactive) | > 100 µM (inactive) | > 100 µM (inactive) | > 100 µM (inactive) | –
14 | COc1cc(OC)c(SSCCCCS(=O)O)c(OC)c1 | 15.4 µM (inactive) | 12.2 µM (inactive) | 20.1 µM (inactive) | – | 5.45 µM (inactive) | 16.6 µM (inactive) | 13.9 µM (inactive) | 6.65 µM (inactive) | 16.4 µM (inactive) | 16.1 µM (inactive) | – | 15 µM (inactive) | 18.3 µM (inactive) | 15.1 µM (inactive) | 3.91 µM (inactive) | 16.1 µM (inactive) | 21 µM (inactive) | 26.2 µM (inactive) | 10.7 µM (inactive) | 12.1 µM (inactive)
15 | O=C1/C(=C/c2ccc(Cl)cc2)CNC/C1=C\c1ccc(Cl)cc1 | 1.89 µM (inactive) | 6.08 µM (inactive) | 1.57 µM (inactive) | 2.91 µM (inactive) | – | 4.79 µM (inactive) | 0.638 µM (active) | 1.92 µM (inactive) | – | 1.15 µM (inactive) | 2.44 µM (inactive) | 1.5 µM (inactive) | – | 2.01 µM (inactive) | – | 3.28 µM (inactive) | 1.58 µM (inactive) | 2.43 µM (inactive) | – | –
